Experimental data: patent US20240158370A1, “CK1 alpha AND DUAL CK1 alpha / GSPT1 DEGRADING COMPOUNDS” (Innovo Therapeutics, Inc., priority 2022, published 2024)

Tests used:
[1] = biological target: T1, CK1α (Homo sapiens, UniProt P48729+Q96SW2); test: HiBiT degradation assay, CK1α, Procedure A; format: cell-based; conditions: six hours incubation
T1 construct: CSNK1A1-HiBit KI HEK293(LgBit) Cells; host or cells: HEK293(LgBit) knock-in cells
How it was run: (§1)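 Cells in DMEM+10% FBS at 1×10^6 cells/ml were added to pre-spotted compound (10-point dose response, 10 μM to 0.005 μM, 0.1% DMSO) and incubated 6 h at 37° C. Nano-Glo HiBiT lytic reagent was added and luminescence read. DC50 and Ymin came from 4-parameter curve fits.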

[2] = biological target: GSPT1 (Homo sapiens, UniProt P15170+Q96SW2); test: HiBiT degradation assay, GSPT1, Procedure A; format: cell-based; parameters: HiBit-GSPT1 KI HEK293(LgBit) Cells; host or cells: HEK293(LgBit) knock-in cells; conditions: six hours incubation
Sequence of GSPT1 (P15170 whole entry): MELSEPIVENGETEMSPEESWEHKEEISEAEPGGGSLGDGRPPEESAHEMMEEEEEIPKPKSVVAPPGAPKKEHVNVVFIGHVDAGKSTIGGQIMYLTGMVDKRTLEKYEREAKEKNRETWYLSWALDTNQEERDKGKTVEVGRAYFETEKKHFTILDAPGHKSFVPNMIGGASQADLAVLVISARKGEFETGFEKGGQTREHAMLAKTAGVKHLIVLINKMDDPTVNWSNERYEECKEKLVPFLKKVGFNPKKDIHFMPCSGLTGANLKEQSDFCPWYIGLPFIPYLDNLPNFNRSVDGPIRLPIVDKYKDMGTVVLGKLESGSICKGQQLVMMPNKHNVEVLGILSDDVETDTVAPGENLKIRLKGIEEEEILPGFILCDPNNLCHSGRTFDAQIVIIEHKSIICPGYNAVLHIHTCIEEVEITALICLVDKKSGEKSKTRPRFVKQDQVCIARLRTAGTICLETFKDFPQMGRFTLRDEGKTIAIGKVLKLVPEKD
Sequence of GSPT1 (Q96SW2 whole entry): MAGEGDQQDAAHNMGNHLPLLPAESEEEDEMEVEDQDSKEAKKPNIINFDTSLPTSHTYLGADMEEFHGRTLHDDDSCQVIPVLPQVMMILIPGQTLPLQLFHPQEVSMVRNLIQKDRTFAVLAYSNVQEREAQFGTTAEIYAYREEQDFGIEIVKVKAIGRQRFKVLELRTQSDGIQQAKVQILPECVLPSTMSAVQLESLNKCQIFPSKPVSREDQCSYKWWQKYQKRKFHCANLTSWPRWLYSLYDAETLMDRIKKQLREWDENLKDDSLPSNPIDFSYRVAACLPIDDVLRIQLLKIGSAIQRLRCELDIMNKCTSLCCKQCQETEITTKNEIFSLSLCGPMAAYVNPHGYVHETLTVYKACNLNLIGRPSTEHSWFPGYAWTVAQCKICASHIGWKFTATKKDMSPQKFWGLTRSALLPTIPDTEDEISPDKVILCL
Sequence of GSPT1 (Q16531 whole entry partner): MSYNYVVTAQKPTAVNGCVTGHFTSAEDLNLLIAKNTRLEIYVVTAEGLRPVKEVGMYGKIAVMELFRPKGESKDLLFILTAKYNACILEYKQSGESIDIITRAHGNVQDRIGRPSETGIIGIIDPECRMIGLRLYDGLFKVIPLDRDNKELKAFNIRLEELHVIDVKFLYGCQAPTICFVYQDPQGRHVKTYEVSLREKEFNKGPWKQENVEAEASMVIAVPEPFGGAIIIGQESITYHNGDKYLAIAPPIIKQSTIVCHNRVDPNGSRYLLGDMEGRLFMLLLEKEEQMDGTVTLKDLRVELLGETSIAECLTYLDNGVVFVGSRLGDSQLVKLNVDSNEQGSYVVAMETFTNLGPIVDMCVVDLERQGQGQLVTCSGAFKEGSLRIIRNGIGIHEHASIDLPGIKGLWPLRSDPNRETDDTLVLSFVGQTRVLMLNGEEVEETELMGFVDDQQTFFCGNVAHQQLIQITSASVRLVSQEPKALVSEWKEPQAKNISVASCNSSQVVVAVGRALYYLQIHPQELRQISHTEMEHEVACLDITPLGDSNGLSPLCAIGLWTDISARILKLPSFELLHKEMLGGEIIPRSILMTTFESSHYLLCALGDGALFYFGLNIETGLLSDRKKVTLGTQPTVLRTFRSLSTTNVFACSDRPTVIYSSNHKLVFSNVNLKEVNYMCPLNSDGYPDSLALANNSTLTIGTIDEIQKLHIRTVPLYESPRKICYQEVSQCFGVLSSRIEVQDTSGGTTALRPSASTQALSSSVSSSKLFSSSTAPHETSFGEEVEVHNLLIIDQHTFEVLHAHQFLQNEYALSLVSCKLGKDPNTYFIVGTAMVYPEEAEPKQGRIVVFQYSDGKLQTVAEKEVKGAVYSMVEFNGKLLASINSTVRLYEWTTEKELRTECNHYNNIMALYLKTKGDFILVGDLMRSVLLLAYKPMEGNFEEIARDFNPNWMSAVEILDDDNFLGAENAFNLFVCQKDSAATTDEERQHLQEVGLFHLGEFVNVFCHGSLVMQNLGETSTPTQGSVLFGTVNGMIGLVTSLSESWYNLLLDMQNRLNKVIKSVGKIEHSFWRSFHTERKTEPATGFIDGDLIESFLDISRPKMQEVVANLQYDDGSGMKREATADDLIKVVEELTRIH
How it was run: as §1

T1 sequence (P48729 whole entry): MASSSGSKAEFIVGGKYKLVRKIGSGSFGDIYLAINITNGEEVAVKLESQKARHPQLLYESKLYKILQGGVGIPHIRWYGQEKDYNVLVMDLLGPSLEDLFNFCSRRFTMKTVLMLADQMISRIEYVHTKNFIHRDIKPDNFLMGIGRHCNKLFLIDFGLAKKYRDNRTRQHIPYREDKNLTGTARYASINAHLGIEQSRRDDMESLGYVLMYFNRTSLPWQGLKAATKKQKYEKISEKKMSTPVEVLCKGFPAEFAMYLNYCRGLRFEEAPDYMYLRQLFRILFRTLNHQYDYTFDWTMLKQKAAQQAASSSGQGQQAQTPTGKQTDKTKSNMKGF
T1 sequence (Q96SW2 whole entry): as the sequence (Q96SW2 whole entry) above
T1 sequence (Q16531 whole entry partner): as the sequence (Q16531 whole entry partner) above

SMILES	CK1α Ymin [1]	DC50 [1]	DC50 [2]	GSPT1 Ymin [2]
COc1c(F)cccc1-c1c(-c2ccc3c(c2)CN(C2CCC(=O)NC2=O)C3=O)ncn1C (stereo not shown) [Example 195]	D (D = >10- 25% remaining)	< 25 nM	< 25 nM	E (E = >25-75% remaining)
Cc1ccc(Cl)cc1-c1c(-c2ccc3c(c2)CN(C2CCC(=O)NC2=O)C3=O)ncn1C (stereo not shown) [Example 196]	E (E = >25-75% remaining)	< 25 nM	< 25 nM	F (F = >75-100% remaining)
Cc1ccc(-c2c(-c3ccc4c(c3)CN(C3CCC(=O)NC3=O)C4=O)ncn2C)cc1Cl (stereo not shown) [Example 197]	E (E = >25-75% remaining)	< 25 nM	< 25 nM	E (E = >25-75% remaining)
Cc1ccc(-c2c(-c3ccc4c(c3)CN(C3CCC(=O)NC3=O)C4=O)ncn2C)c(Cl)c1 (stereo not shown) [Example 198]	C (C = 0-10% remaining)	< 25 nM	< 25 nM	E (E = >25-75% remaining)
Cc1ccc(Cl)c(-c2c(-c3ccc4c(c3)CN(C3CCC(=O)NC3=O)C4=O)ncn2C)c1 (stereo not shown) [Example 199]	D (D = >10- 25% remaining)	< 25 nM	< 25 nM	F (F = >75-100% remaining)
Cc1cc(-c2c(-c3ccc4c(c3)CN(C3CCC(=O)NC3=O)C4=O)ncn2C)ccc1Cl (stereo not shown) [Example 200]	D (D = >10- 25% remaining)	< 25 nM	< 25 nM	E (E = >25-75% remaining)
Cc1cc(Cl)cc(-c2c(-c3ccc4c(c3)CN(C3CCC(=O)NC3=O)C4=O)ncn2C)c1 (stereo not shown) [Example 201]	E (E = >25-75% remaining)	< 25 nM	≥ 25 nM	F (F = >75-100% remaining)
Cn1cnc(-c2ccc3c(c2)CN(C2CCC(=O)NC2=O)C3=O)c1-c1cccc(C(F)F)c1 (stereo not shown) [Example 202]	D (D = >10- 25% remaining)	< 25 nM	≥ 25 nM	F (F = >75-100% remaining)
Cn1cnc(-c2ccc3c(c2)CN(C2CCC(=O)NC2=O)C3=O)c1-c1ccc(C(F)F)cc1 (stereo not shown) [Example 203]	D (D = >10- 25% remaining)	< 25 nM	≥ 25 nM	E (E = >25-75% remaining)
Cn1cnc(-c2ccc3c(c2)CN(C2CCC(=O)NC2=O)C3=O)c1-c1cc(F)cc(Cl)c1 (stereo not shown) [Example 204]	E (E = >25-75% remaining)	< 25 nM	≥ 25 nM	F (F = >75-100% remaining)
O=C1CCC(N2Cc3cc(-c4cncn4-c4ccccc4)ccc3C2=O)C(=O)N1 (stereo not shown) [Example 205, 3-(1-Oxo-5-(1-phenyl-1H-imidazol-5-yl)isoindolin-2-yl)piperidine-2,6-dione]	E (E = >25-75% remaining)	< 25 nM	≥ 25 nM	F (F = >75-100% remaining)
O=C1CCC(N2Cc3cc(-c4conc4-c4ccccc4)ccc3C2=O)C(=O)N1 (stereo not shown) [Example 206, 3-(1-Oxo-5-(3-phenylisoxazol-4-yl)isoindolin-2-yl)piperidine-2,6-dione]	E (E = >25-75% remaining)	≥ 25 nM	≥ 25 nM	F (F = >75-100% remaining)
[2H]C([2H])([2H])n1ncc(-c2ccc3c(c2)CN(C2CCC(=O)NC2=O)C3=O)c1-c1ccccc1 (stereo not shown) [Example 207, 3-(5-(1-(Methyl-d3)-5-phenyl-1H-pyrazol-4-yl)-1-oxoisoindolin-2-yl)piperidine-2,6-dione]	D (D = >10- 25% remaining)	< 25 nM	≥ 25 nM	F (F = >75-100% remaining)
O=C1CCC(N2Cc3cc(-c4cnn(CC(F)(F)F)c4-c4ccccc4)ccc3C2=O)C(=O)N1 (stereo not shown) [Example 208, 3-(1-Oxo-5-(5-phenyl-1-(2,2,2-trifluoroethyl)-1H-pyrazol-4-yl)isoindolin-2-yl)piperidine-2,6-dione]	D (D = >10- 25% remaining)	< 25 nM	≥ 25 nM	F (F = >75-100% remaining)

Continued, values first:

CK1α Ymin [1]	DC50 [1]	DC50 [2]	GSPT1 Ymin [2]	SMILES
C (C = 0-10% remaining)	< 25 nM	≥ 25 nM	F (F = >75-100% remaining)	Cn1cc(-c2ccc3c(c2)CN(C2CCC(=O)NC2=O)C3=O)nc1-c1ccc(C(F)(F)F)cc1 (stereo not shown) [Example 209, 3-(5-(1-methyl-2-(4-(trifluoromethyl)phenyl)-1H-imidazol-4-yl)-1-oxoisoindolin-2-yl)piperidine-2,6-dione]
D (D = >10- 25% remaining)	< 25 nM	≥ 25 nM	F (F = >75-100% remaining)	O=C1CCC(N2Cc3cc(-c4cc(-c5ccccc5)[nH]n4)ccc3C2=O)C(=O)N1 (stereo not shown) [Example 210, 3-(1-Oxo-5-(5-phenyl-1H-pyrazol-3-yl)isoindolin-2-yl)piperidine-2,6-dione]
C (C = 0-10% remaining)	< 25 nM	≥ 25 nM	F (F = >75-100% remaining)	Cc1c(-c2ccc3c(c2)CN(C2CCC(=O)NC2=O)C3=O)nn(C)c1-c1ccccc1 (stereo not shown) [Example 211, 3-(5-(1,4-Dimethyl-5-phenyl-1H-pyrazol-3-yl)-1-oxoisoindolin-2-yl)piperidine-2,6-dione]
E (E = >25-75% remaining)	< 25 nM	≥ 25 nM	F (F = >75-100% remaining)	Cc1cc(-c2c(-c3ccc4c(c3)CN(C3CCC(=O)NC3=O)C4=O)cnn2C)c(C)s1 (stereo not shown) [Example 213]
E (E = >25-75% remaining)	< 25 nM	≥ 25 nM	F (F = >75-100% remaining)	Cn1ncc(-c2ccc3c(c2)CN(C2CCC(=O)NC2=O)C3=O)c1-c1ccc(CN2CCOCC2)cc1 (stereo not shown) [Example 214]
D (D = >10- 25% remaining)	< 25 nM	≥ 25 nM	F (F = >75-100% remaining)	Cc1ccc(-c2c(-c3ccc4c(c3)CN(C3CCC(=O)NC3=O)C4=O)cnn2C)s1 (stereo not shown) [Example 215]
E (E = >25-75% remaining)	< 25 nM	≥ 25 nM	F (F = >75-100% remaining)	Cn1ncc(-c2ccc3c(c2)CN(C2CCC(=O)NC2=O)C3=O)c1-c1ccc(Cl)cc1 (stereo not shown) [Example 216]
D (D = >10- 25% remaining)	< 25 nM	≥ 25 nM	F (F = >75-100% remaining)	CN1CCN(c2ccc(-c3c(-c4ccc5c(c4)CN(C4CCC(=O)NC4=O)C5=O)cnn3C)cc2)CC1 (stereo not shown) [Example 217]
D (D = >10- 25% remaining)	≥ 25 nM	≥ 25 nM	F (F = >75-100% remaining)	Cn1ncc(-c2ccc3c(c2)CN(C2CCC(=O)NC2=O)C3=O)c1-c1ccc2[nH]ccc2c1 (stereo not shown) [Example 218]
C (C = 0-10% remaining)	< 25 nM	≥ 25 nM	F (F = >75-100% remaining)	Cn1ncc(-c2ccc3c(c2)CN(C2CCC(=O)NC2=O)C3=O)c1-c1cccc(O)c1 (stereo not shown) [Example 219]
E (E = >25-75% remaining)	< 25 nM	≥ 25 nM	F (F = >75-100% remaining)	Cn1ncc(-c2ccc3c(c2)CN(C2CCC(=O)NC2=O)C3=O)c1-c1ccc(OCCCN2CCOCC2)cc1 (stereo not shown) [Example 220]
E (E = >25-75% remaining)	≥ 25 nM	≥ 25 nM	F (F = >75-100% remaining)	Cn1ncc(-c2ccc3c(c2)CN(C2CCC(=O)NC2=O)C3=O)c1-c1ccc(S(C)(=O)=O)cc1 (stereo not shown) [Example 221]
C (C = 0-10% remaining)	< 25 nM	≥ 25 nM	F (F = >75-100% remaining)	COc1ccc(-c2c(-c3ccc4c(c3)CN(C3CCC(=O)NC3=O)C4=O)cnn2C)cc1O (stereo not shown) [Example 222]
E (E = >25-75% remaining)	≥ 25 nM	≥ 25 nM	F (F = >75-100% remaining)	Cn1ncc(-c2ccc3c(c2)CN(C2CCC(=O)NC2=O)C3=O)c1-c1ccc(C#N)cc1F (stereo not shown) [Example 225]
C (C = 0-10% remaining)	< 25 nM	< 25 nM	E (E = >25-75% remaining)	Cn1cnc(-c2ccc3c(c2)CN(C2CCC(=O)NC2=O)C3=O)c1-c1ccsc1 (stereo not shown) [Example 226]
D (D = >10- 25% remaining)	< 25 nM	< 25 nM	E (E = >25-75% remaining)	Cc1ccc(-c2c(-c3ccc4c(c3)CN(C3CCC(=O)NC3=O)C4=O)ncn2C)cc1 (stereo not shown) [Example 227]
C (C = 0-10% remaining)	< 25 nM	≥ 25 nM	D (D = >10- 25% remaining)	Cn1cnc(-c2ccc3c(c2)CN(C2CCC(=O)NC2=O)C3=O)c1-c1cccc(O)c1 (stereo not shown) [Example 228]
C (C = 0-10% remaining)	< 25 nM	< 25 nM	E (E = >25-75% remaining)	Cc1ccc(-c2c(-c3ccc4c(c3)CN(C3CCC(=O)NC3=O)C4=O)ncn2C)s1 (stereo not shown) [Example 229]
C (C = 0-10% remaining)	< 25 nM	< 25 nM	E (E = >25-75% remaining)	Cc1csc(-c2c(-c3ccc4c(c3)CN(C3CCC(=O)NC3=O)C4=O)ncn2C)c1 (stereo not shown) [Example 230]
D (D = >10- 25% remaining)	< 25 nM	≥ 25 nM	F (F = >75-100% remaining)	Cc1sccc1-c1c(-c2ccc3c(c2)CN(C2CCC(=O)NC2=O)C3=O)ncn1C (stereo not shown) [Example 231]
